Data published in BindingDB's records for doi:10.1021/jm010936y (2002).

Molecular target: Neuronal acetylcholine receptor alpha3/beta4 (Sus scrofa)
Test: Binding affinity to Nicotinic acetylcholine receptor alpha3-beta4 using +/-[3H]epibatidine as radioligand in pig adrenal gland

Row | SMILES | Ki
1 | C1=C(c2ccnnc2)C2CC[C@H](CC1)N2 [2-Pyridazin-4-yl-9-aza-bicyclo[4.2.1]non-2-ene] | 2.5 nM
2 | C1=C(c2cncnc2)C2CC[C@H](CC1)N2 [2-Pyrimidin-5-yl-9-aza-bicyclo[4.2.1]non-2-ene] | 20 nM
